We go through 36 molecules from patent US9758492B2, “IDO inhibitors” (Bristol-Myers Squibb Company, priority 2013, dated 2017).

IDO, sequence (P14902 whole entry): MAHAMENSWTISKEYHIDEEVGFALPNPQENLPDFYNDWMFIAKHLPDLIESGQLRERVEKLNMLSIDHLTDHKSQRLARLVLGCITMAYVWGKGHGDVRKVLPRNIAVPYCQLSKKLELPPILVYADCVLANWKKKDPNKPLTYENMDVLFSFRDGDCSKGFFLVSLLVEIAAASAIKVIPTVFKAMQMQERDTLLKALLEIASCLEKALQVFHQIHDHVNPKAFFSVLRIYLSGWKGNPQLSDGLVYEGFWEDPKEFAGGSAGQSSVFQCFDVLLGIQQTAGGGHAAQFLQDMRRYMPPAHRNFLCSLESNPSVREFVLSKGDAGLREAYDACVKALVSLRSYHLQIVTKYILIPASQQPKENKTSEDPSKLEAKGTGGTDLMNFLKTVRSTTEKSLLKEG

The test concerns the target IDO (Homo sapiens, UniProt P14902). Nature of the test: LLE_IDO_ABS_DR (IDO assay).
Molecule `Cc1ccc(NC(=O)Nc2cc(-c3ccccc3C(=O)O)ccc2N(CC(C)C)CC2CCC2)cc1` [Example 100, 4′-((cyclobutylmethyl) (isobutyl)amino)-3′-(3-p-tolylureido)biphenyl-2-carboxylic acid] came in with an IC50 of 90 nM.
The same measure for `Cc1ccc(NC(=O)Nc2cc(-c3c(C(=O)O)cccc3N(C)C)ccc2N(CC(C)C)CC(C)C)cc1` [Example 101, 4′-(diisobutylamino)-6-(dimethylamino)-3′-(3-p-tolylureido) biphenyl-2-carboxylic acid]: 10 nM; for `CCn1nc(C)c(-c2ccc(N(CC(C)C)CC(C)C)c(NC(=O)Nc3ccc(C)cc3)c2)c1C(=O)O` [Example 102, 4-(4-(diisobutylamino)-3-(3-p-tolylureido)phenyl)-1-ethyl-3-methyl-1H-pyrazole-5-carboxylic acid]: 210 nM; for `Cc1ccc(NC(=O)Nc2cc(-c3scnc3C(=O)O)ccc2N(CC(C)C)CC(C)C)cc1` [Example 103, 5-(4-(diisobutylamino)-3-(3-p-tolylureido)phenyl)thiazole-4-carboxylic acid]: 1760 nM.
The figure for `Cc1ccc(NC(=O)Nc2cc(-c3ccccc3C(=O)O)ccc2N(C)C2CCC(F)(F)CC2)cc1` [Example 104, 4′-((4,4-difluoro-cyclohexyl) (methyl)amino)-3′-(3-p-tolylureido)biphenyl-2-carboxylic acid] is 100 nM.
The figure for `Cc1ccc(NC(=O)Nc2cc(-c3cc(F)ccc3C(=O)O)ccc2N(C)C2CCC(F)(F)CC2)cc1` [Example 105, 4′-((4,4-difluoro-cyclohexyl) (methyl)amino)-5-fluoro-3′-(3-p-tolylureido) biphenyl-2-carboxylic acid] is 190 nM; for `Cc1ccc(NC(=O)Nc2cc(-c3ccccc3-c3nnn[nH]3)ccc2N(C)C2CCC(F)(F)CC2)cc1` [Example 106, 1-(4-((4,4-difluoro-cyclohexyl) (methyl)amino)-2′-(1H-tetrazol-5-yl)biphenyl-3-yl)-3-p-tolylurea] it is 8.81 nM; for `CCC1CCCCN1c1ccc(-c2ccccc2C(=O)O)cc1NC(=O)Nc1ccc(C)cc1` (stereo not drawn) [Example 107, 4′-(2-ethylpiperidin-1-yl)-3′-(3-p-tolylureido)biphenyl-2-carboxylic acid] it is 1860 nM.
In the case of `CCN(CC(C)(C)C)c1ccc(-c2ccccc2C(=O)O)cc1NC(=O)Nc1ccccc1F` [Example 108, 4′-(ethyl(neopentyl)amino)-3′-(3-(2-fluorophenyl)ureido) biphenyl-2-carboxylic acid], the IC50 is 250 nM.
The same measure for `CCC1CCCCN1c1ccc(-c2ccccc2-c2nnn[nH]2)cc1NC(=O)Nc1ccccc1F` (stereo not drawn) [Example 109, 1-(4-(2-ethylpiperidin-1-yl)-2′-(1H-tetrazol-5-yl)biphenyl-3-yl)-3-(2-fluorophenyl)urea]: 410 nM.
The same measure for `CCN(CC(C)(C)C)c1ccc(-c2ccccc2-c2nnn[nH]2)cc1NC(=O)Nc1ccc(C)cc1` [Example 110, 1-(4-(ethyl(neopentyl)amino)-2′-(1H-tetrazol-5-yl)biphenyl-3-yl)-3-p-tolylurea]: 40 nM.
Turning to `CCN(CC(C)(C)C)c1ccc(-c2ccccc2C(=O)O)cc1NC(=O)Nc1ccc(C)cc1` [Example 111, 4′-(ethyl(neopentyl)amino)-3′-(3-p-tolylureido)biphenyl-2-carboxylic acid], the IC50 is 210 nM.
The same measure for `CCN(CC(C)(C)C)c1ccc(-c2ccccc2-c2nnn[nH]2)cc1NC(=O)Nc1ccccc1F` [Example 112, 1-(4-(ethyl(neopentyl)amino)-2′-(1H-tetrazol-5-yl)biphenyl-3-yl)-3-(2-fluorophenyl)urea]: 30 nM; for `CCN(CC(C)(C)C)c1ccc(-c2cc(F)ccc2C(=O)O)cc1NC(=O)Nc1ccc(C)cc1` [Example 113, 4′-(ethyl(neopentyl)amino)-5-fluoro-3′-(3-p-tolylureido)biphenyl-2-carboxylic acid]: 400 nM; for `CCC1CCCCN1c1ccc(-c2ccccc2-c2nnn[nH]2)cc1NC(=O)Nc1ccc(C)cc1` (stereo not drawn) [Example 114, 1-(4-(2-ethylpiperidin-1-yl)-2′-(1H-tetrazol-5-yl)biphenyl-3-yl)-3-p-tolylurea]: 160 nM.
The molecule `CCN(CC(C)(C)C)c1ccc(-c2cc(F)ccc2C(=O)O)cc1NC(=O)Nc1ccccc1F` [Example 115, 4′-(ethyl(neopentyl)amino)-5-fluoro-3′-(3-(2-fluorophenyl)ureido) biphenyl-2-carboxylic acid] returned an IC50 of 350 nM.
With `CCC1CCCCN1c1ccc(-c2ccccc2C(=O)O)cc1NC(=O)Nc1ccccc1F` (stereo not drawn) [Example 116, 4′-(2-ethylpiperidin-1-yl)-3′-(3-(2-fluorophenyl)ureido) biphenyl-2-carboxylic acid], half-maximal inhibition (IC50) was put at 2340 nM.
The same measure for `COc1ccc(-c2ccc(N(CC(C)C)CC(C)C)c(NC(=O)Nc3ccc(C)cc3)c2)c(-c2nnn[nH]2)c1` [Example 117, 1-(4-(diisobutylamino)-4′-methoxy-2′-(1H-tetrazol-5-yl)biphenyl-3-yl)-3-p-tolylurea]: 10 nM.
In turn, `Cc1ccc(NC(=O)Nc2cc(-c3ccccc3-c3nnn[nH]3)ccc2N(CC(C)C)C2CCCCC2)cc1` [Example 118, 1-(4-(cyclohexyl(isobutyl)amino)-2′-(1H-tetrazol-5-yl)biphenyl-3-yl)-3-p-tolylurea] came in with an IC50 of 4.76 nM.
The figure for `Cc1ccc(NC(=O)Nc2cc(-c3ccccc3C(=O)O)ccc2N(CC(C)C)C2CCCCC2)cc1` [Example 119, 4′-(cyclohexyl (isobutyl)amino)-3′-(3-p-tolylureido)biphenyl-2-carboxylic acid] is 5.19 nM; for `Cc1ccc(NC(=O)Nc2cc(-c3ccc(Cl)cc3C(=O)O)ccc2N(CC(C)C)C2CCCCC2)cc1` [Example 120, 4-chloro-4′-(cyclohexyl(isobutyl)amino)-3′-(3-p-tolylureido)biphenyl-2-carboxylic acid] it is 30 nM.
The figure for `CC(C)CN(c1ccc(-c2ccccc2-c2nnn[nH]2)cc1NC(=O)Nc1ccccc1F)C1CCCCC1` [Example 121, 1-(4-(cyclohexyl(isobutyl)amino)-2′-(1H-tetrazol-5-yl)biphenyl-3-yl)-3-(2-fluorophenyl)urea] is 2.59 nM.
As to `CC(C)CN(c1ccc(-c2ccccc2C(=O)O)cc1NC(=O)Nc1ccccc1F)C1CCCCC1` [Example 122, 4′-(cyclohexyl(isobutyl)amino)-3′-(3-(2-fluorophenyl)ureido) biphenyl-2-carboxylic acid], the IC50 worked out at 3.47 nM.
As to `CC(C)CN(c1ccc(-c2ccc(Cl)cc2C(=O)O)cc1NC(=O)Nc1ccccc1F)C1CCCCC1` [Example 123, 4-chloro-4′-(cyclohexyl(isobutyl)amino)-3′-(3-(2-fluorophenyl)ureido) biphenyl-2-carboxylic acid], the IC50 worked out at 20 nM.
The figure for `Cc1ccc(NC(=O)Nc2cc(-c3cc(F)ccc3C(=O)O)ccc2N(CC(C)C)C2CCCCC2)cc1` [Example 124, 4′-(cyclohexyl(isobutyl)amino)-5-fluoro-3′-(3-p-tolylureido)biphenyl-2-carboxylic acid] is 5.18 nM; for `CC(C)CN(c1ccc(-c2cc(F)ccc2C(=O)O)cc1NC(=O)Nc1ccccc1F)C1CCCCC1` [Example 125, 4′-(cyclohexyl(isobutyl)amino)-5-fluoro-3′-(3-(2-fluorophenyl)ureido) biphenyl-2-carboxylic acid] it is 5.92 nM.
As to `COc1ccc(C(=O)O)c(-c2ccc(N(CC(C)C)CC(C)C)c(NC(=O)Nc3ccc(C)cc3)c2)c1` [Example 128, 4′-(diisobutylamino)-5-methoxy-3′-(3-p-tolylureido)biphenyl-2-carboxylic acid], the IC50 turned out to be 390 nM.
Turning to `Cc1ccc(NC(=O)Nc2cc(-c3ccccc3-c3nnn[nH]3)ccc2N(CCC2CC2)CC(C)C)cc1` [Example 129, 1-(4-((2-cyclopropylethyl) (isobutyl)amino)-2′-(1H-tetrazol-5-yl)biphenyl-3-yl)-3-p-tolylurea], 9.53 nM corresponded to half-maximal inhibition (IC50).
`Cc1ccc(NC(=O)Nc2cc(-c3cc(F)ccc3C(=O)O)ccc2N(CCC2CC2)CC(C)C)cc1` [Example 130, 4′-((2-cyclopropylethyl) (isobutyl)amino)-5-fluoro-3′-(3-p-tolylureido) biphenyl-2-carboxylic acid] returned an IC50 of 40 nM.
`Cc1ccc(NC(=O)Nc2cc(-c3sccc3C(=O)O)ccc2N(CCC2CC2)CC(C)C)cc1` [Example 131, 2-(4-((2-cyclopropylethyl) (isobutyl)amino)-3-(3-p-tolylureido)phenyl) thiophene-3-carboxylic acid] displayed an IC50 of 50 nM.
`Cc1ccc(NC(=O)Nc2cc(-c3ccccc3C(=O)O)ccc2N(CCC2CC2)CC(C)C)cc1` [Example 132, 4′-((2-cyclopropylethyl) (isobutyl)amino)-3′-(3-p-tolylureido) biphenyl-2-carboxylic acid] gave an IC50 of 50 nM.
The same measure for `CC(C)CN(CCC1CC1)c1ccc(-c2ccccc2-c2nnn[nH]2)cc1NC(=O)Nc1ccccc1F` [Example 133, 1-(4-((2-cyclopropylethyl) (isobutyl)amino)-2′-(1H-tetrazol-5-yl)biphenyl-3-yl)-3-(2-fluorophenyl)urea]: 6.45 nM; for `CC(C)CN(CCC1CC1)c1ccc(-c2ccccc2C(=O)O)cc1NC(=O)Nc1ccccc1F` [Example 134, 4′-((2-cyclopropylethyl) (isobutyl)amino)-3′-(3-(2-fluorophenyl)ureido)biphenyl-2-carboxylic acid]: 30 nM.
As to `CC(C)CN(CCC1CC1)c1ccc(-c2cc(F)ccc2C(=O)O)cc1NC(=O)Nc1ccccc1F` [Example 135, 4′-((2-cyclopropylethyl) (isobutyl)amino)-5-fluoro-3′-(3-(2-fluorophenyl)ureido)biphenyl-2-carboxylic acid], the IC50 was determined as 20 nM.
In turn, `CC(C)CN(CCC1CC1)c1ccc(-c2sccc2C(=O)O)cc1NC(=O)Nc1ccccc1F` [Example 136, 2-(4-((2-cyclopropylethyl) (isobutyl)amino)-3-(3-(2-fluorophenyl)ureido)phenyl)thiophene-3-carboxylic acid] yielded an IC50 of 70 nM.
The same measure for `CC(C)CN(CC(C)C)c1ccc(-c2ccccc2-c2nnn[nH]2)cc1NC(=O)Nc1ccc(F)cc1F` [Example 137, 1-(2,4-difluorophenyl)-3-(4-(diisobutylamino)-2′-(1H-tetrazol-5-yl)biphenyl-3-yl)urea]: 5.24 nM.

One may read the IC50 as the concentration that gives 50% inhibition. Low values mean inhibition by little substance, high ones a need for much substance.
